{"source": "paper PMC5717343", "about": "(Open Biology, 2017)", "tested_on": "PrP^Sc in iPK1/2 cells", "type": "cell-based"}
{"substance": "dextran sulfate", "values": [{"measurement": "concentration of apparent curing", "value": "greater than 1 × 10^−6 M"}, {"measurement": "effect on PrP^Sc levels / prion infection (curing)", "value": "dose-dependent decrease in PrP^Sc"}, {"measurement": "IC50", "setting": "read-out: apparent IC50, reduction of PrP^Sc", "value": "~500", "unit": "nM"}]}
